# System: pupillary light reflex of an individual
# Assay: pupillary light reflex after inhalation of THC (pupillometry)
# Format: in vivo
# Text: Following acquisition 131, primary data such as, for instance, pupillary dimensions and pupillary oscillations therefrom, can be determined for each of the plurality of video frames in the video sequence of the eye of the patient 132. […]
# Pupillary oscillations and/or reactions to light, as described above, can reflect the activity of the autonomic nervous system. […] The pupillary light reflex can be evaluated via the method, and apparatus thereof, of the present disclosure, wherein higher frequency activation occurs with increased sympathetic tone and lower frequency activation occurs from increased parasympathetic tone. […]
# According to an embodiment, a variety of pupillometric measures can be evaluated from pupillary data following initial video sequence processing 132 such that, in combination with secondary data 134 including frequency spectra, patient response profiles can be better characterized. […] As introduced above, the baseline pupil size can be found before the flash of light and the maximally constricted size can be determined after the flash of light. […]
structure (smiles),measurement,setting,value
"CCCCCc1cc(O)c2c(c1)OC(C)(C)[C@@H]1CCC(C)=C[C@@H]21 [THC, Δ^9-tetrahydrocannabinol]",influence on pupillary light reflex,"cannabis-tolerant individual, 30, 60, 90, 120 and 150 minutes after inhalation of THC, FIG. 4",inhibited to varying levels
same,influence on pupillary light reflex,"individual, 30, 60, 120 and 180 minutes after inhalation of 24 mg of THC, FIG. 3",inhibited to varying levels
